Like-named read-outs stand apart in the source and are kept apart here.
Legend:
[1] = target: T1, EcSerRS (Escherichia coli, UniProt P0A8L1); assay: continuous coupled spectrophotometric assay of adenylate formation; assay type: biochemical
[2] = target: T2, HsSerRS (Homo sapiens, UniProt P49591); assay type: biochemical
[3] = target: T3, SaSerRS (Staphylococcus aureus, UniProt P95689); assay: continuous coupled spectrophotometric assay of adenylate formation; assay type: biochemical
[4] = target: T3, SaSerRS; assay: biochemical
[5] = target: T1, EcSerRS; assay: biochemical
[6] = target: T2, HsSerRS; assay: biochemical
[7] = pH 7.6, 37 °C, 10 mM MgCl2, 10% DMSO

T3 sequence (P95689 whole entry): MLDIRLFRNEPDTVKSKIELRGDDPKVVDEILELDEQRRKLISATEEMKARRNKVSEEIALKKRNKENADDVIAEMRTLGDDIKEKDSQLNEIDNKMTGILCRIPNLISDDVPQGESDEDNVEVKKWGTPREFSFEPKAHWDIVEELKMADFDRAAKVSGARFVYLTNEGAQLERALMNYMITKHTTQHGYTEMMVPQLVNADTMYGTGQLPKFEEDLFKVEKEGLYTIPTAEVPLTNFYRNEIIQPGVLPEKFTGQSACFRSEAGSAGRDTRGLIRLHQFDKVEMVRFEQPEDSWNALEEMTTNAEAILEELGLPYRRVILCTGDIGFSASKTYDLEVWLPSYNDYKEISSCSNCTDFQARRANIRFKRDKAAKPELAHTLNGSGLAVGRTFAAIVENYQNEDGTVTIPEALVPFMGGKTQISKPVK
T2 sequence (P49591 whole entry, looked up): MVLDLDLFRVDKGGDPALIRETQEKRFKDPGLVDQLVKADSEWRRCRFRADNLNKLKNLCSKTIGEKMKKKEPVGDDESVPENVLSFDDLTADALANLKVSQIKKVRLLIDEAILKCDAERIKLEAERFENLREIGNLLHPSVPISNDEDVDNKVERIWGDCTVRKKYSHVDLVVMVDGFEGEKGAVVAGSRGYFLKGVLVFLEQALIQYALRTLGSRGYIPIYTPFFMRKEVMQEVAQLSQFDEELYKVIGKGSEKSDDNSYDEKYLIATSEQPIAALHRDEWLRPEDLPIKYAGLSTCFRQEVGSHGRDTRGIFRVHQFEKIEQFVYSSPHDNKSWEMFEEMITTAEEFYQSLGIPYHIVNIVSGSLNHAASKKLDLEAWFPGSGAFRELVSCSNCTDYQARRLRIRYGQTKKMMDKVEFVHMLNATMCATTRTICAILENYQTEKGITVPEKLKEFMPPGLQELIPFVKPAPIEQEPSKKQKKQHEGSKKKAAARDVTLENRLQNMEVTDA
T1 sequence (P0A8L1 whole entry): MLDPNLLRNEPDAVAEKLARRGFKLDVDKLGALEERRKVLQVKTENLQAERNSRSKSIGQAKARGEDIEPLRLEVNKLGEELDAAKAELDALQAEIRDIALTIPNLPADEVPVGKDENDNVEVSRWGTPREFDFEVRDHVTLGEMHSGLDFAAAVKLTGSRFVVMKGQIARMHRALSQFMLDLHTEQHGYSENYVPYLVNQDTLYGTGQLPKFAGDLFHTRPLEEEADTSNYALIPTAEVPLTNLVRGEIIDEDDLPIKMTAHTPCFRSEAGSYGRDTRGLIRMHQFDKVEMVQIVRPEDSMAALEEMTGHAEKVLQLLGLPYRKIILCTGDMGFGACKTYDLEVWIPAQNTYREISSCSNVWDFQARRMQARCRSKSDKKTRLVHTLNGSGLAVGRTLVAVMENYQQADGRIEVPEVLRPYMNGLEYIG

Row | Compound | IC50 [1, 7] [µM] | IC50 [3, 7] [µM] | also measured
1 | Nc1ncnc2c1ncn2[C@@H]1O[C@H](COS(=O)(=O)NC(=O)[C@@H](N)CO)[C@@H](O)[C@H]1O [compound 1, SerSA] | 0.21 ± 0.03 | – | IC50 [2]: 2.17 ± 0.21 µM; IC50 ([3]; pH 7.6, 37 °C, 10 mM MgCl2, 10% DMSO, error as printed is larger than the value): 0.23 ± 0.49 µM
2 | Nc1nc(Cl)nc2c1ncn2[C@@H]1O[C@H](COS(=O)(=O)NC(=O)[C@@H](N)CO)[C@@H](O)[C@H]1O [compound 2] | 0.45 ± 0.05 | 0.26 ± 0.03 | –
3 | Nc1nc(I)nc2c1ncn2[C@@H]1O[C@H](COS(=O)(=O)NC(=O)[C@@H](N)CO)[C@@H](O)[C@H]1O [compound 3] | 1.36 ± 0.12 | 0.38 ± 0.04 | –
4 | Nc1nc(-c2ccccc2)nc2c1ncn2[C@@H]1O[C@H](COS(=O)(=O)NC(=O)[C@@H](N)CO)[C@@H](O)[C@H]1O [compound 4] | 17.7 ± 1.42 | 52.7 ± 4.81 | –
5 | C/C=C/c1nc(N)c2ncn([C@@H]3O[C@H](COS(=O)(=O)NC(=O)[C@@H](N)CO)[C@@H](O)[C@H]3O)c2n1 [compound 5] | 9.38 ± 0.7 | 3.46 ± 0.47 | –
6 | Nc1nc(-c2ccco2)nc2c1ncn2[C@@H]1O[C@H](COS(=O)(=O)NC(=O)[C@@H](N)CO)[C@@H](O)[C@H]1O [compound 6] | 36.2 ± 2.41 | 32.4 ± 3.56 | –
7 | Nc1nc(-c2ccsc2)nc2c1ncn2[C@@H]1O[C@H](COS(=O)(=O)NC(=O)[C@@H](N)CO)[C@@H](O)[C@H]1O [compound 7] | 1.44 ± 0.09 | 1.24 ± 0.12 | –
8 | Nc1nc(-c2cccnc2)nc2c1ncn2[C@@H]1O[C@H](COS(=O)(=O)NC(=O)[C@@H](N)CO)[C@@H](O)[C@H]1O [compound 8] | 6.65 ± 0.64 | 6.34 ± 0.71 | –
9 | C[C@H](N)C(=O)NS(=O)(=O)OC[C@H]1O[C@@H](n2cnc3c(N)ncnc32)[C@H](O)[C@@H]1O [compound 9, AlaSA] | – | – | IC50 [4]: > 1000 µM; IC50 [5]: > 1000 µM; IC50 [6]: > 1000 µM
10 | C[C@@H](O)[C@H](N)C(=O)NS(=O)(=O)OC[C@H]1O[C@@H](n2cnc3c(N)ncnc32)[C@H](O)[C@@H]1O [compound 10, ThrSA] | – | – | IC50 [1]: 285 µM; IC50 [6]: > 1000 µM; IC50 [3]: 231 µM

Reference: article doi:10.1101/586255v1 (biorxiv, 2019)
